Results from article PMC4783567, “The Effect of Vinpocetine on Human Cytochrome P450 Isoenzymes by Using a Cocktail Method” (Evidence-based Complementary and Alternative Medicine : eCAM, 2016).

Assays:
Assay in all cases: five-probe cocktail in human liver microsomes, LC-MS/MS of metabolites
Format in all cases: biochemical
[1] = target: T1, CYP2C19 (Homo sapiens, UniProt P33261); settings: omeprazole 5-hydroxylation, printed 50 mM omeprazole (unit as printed), 1 mM NADPH, pH 7.4, 37°C; unreliable (extrapolated above top concentration 100 μM; text says > 100 μM)
T1 construct: native enzyme in pooled human liver microsomes (BD Gentest); activity read by omeprazole 5-hydroxylation
Text: five-probe cocktail in human liver microsomes, LC-MS/MS of metabolites on CYP2C19

[2] = target: T2, CYP2E1 (Homo sapiens, UniProt P05181); settings: chlorzoxazone 6-hydroxylation, printed 50 mM chlorzoxazone (unit as printed), 1 mM NADPH, pH 7.4, 37°C; unreliable (extrapolated above top concentration 100 μM; text says > 100 μM)
T2 construct: native enzyme in pooled human liver microsomes (BD Gentest); activity read by chlorzoxazone 6-hydroxylation
Text: five-probe cocktail in human liver microsomes, LC-MS/MS of metabolites on CYP2E1

[3] = target: T3, CYP2C9 (Homo sapiens, UniProt P11712); settings: tolbutamide 4-hydroxylation, printed 100 mM tolbutamide (unit as printed), 1 mM NADPH, 3.3 mM MgCl2, pH 7.4, 37°C, 30 min; b29 prints 68.91; Table 2 prints vinpocetine in μg/mL, methods in μM
T3 construct: native enzyme in pooled human liver microsomes (BD Gentest); activity read by tolbutamide 4-hydroxylation
Text: five-probe cocktail in human liver microsomes, LC-MS/MS of metabolites on CYP2C9

[4] = target: T4, CYP2D6 (Homo sapiens, UniProt P10635); settings: dextrorphan formation, printed 5 mM dextromethorphan (unit as printed), 1 mM NADPH, pH 7.4, 37°C; unreliable (extrapolated above top concentration 100 μM; text says > 100 μM)
T4 construct: native enzyme in pooled human liver microsomes (BD Gentest); activity read by dextrorphan formation from dextromethorphan
Text: five-probe cocktail in human liver microsomes, LC-MS/MS of metabolites on CYP2D6

[5] = target: T5, CYP3A4 (Homo sapiens, UniProt P08684); settings: testosterone 6β-hydroxylation, printed 50 mM testosterone (unit as printed), otherwise as row above; unreliable (extrapolated above top concentration 100 μM; text says > 100 μM)
T5 construct: native enzyme in pooled human liver microsomes (BD Gentest); activity read by testosterone 6beta-hydroxylation (CYP3A5 may contribute)
Text: five-probe cocktail in human liver microsomes, LC-MS/MS of metabolites on CYP3A4

T2 sequence (P05181 whole entry): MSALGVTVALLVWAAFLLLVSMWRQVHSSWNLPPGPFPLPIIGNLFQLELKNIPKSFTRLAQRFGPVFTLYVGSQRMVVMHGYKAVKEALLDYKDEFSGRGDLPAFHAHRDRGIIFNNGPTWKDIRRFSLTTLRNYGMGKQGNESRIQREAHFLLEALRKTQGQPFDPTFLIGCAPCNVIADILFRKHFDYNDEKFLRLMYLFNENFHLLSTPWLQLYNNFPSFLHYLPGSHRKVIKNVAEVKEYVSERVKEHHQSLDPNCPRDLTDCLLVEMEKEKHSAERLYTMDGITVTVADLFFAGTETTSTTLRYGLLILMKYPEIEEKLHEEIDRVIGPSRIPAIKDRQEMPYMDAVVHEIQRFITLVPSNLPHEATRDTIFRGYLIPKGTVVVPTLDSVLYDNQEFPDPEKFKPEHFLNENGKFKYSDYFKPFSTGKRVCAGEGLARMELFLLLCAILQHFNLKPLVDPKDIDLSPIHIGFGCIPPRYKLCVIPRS
T1 sequence (P33261 whole entry): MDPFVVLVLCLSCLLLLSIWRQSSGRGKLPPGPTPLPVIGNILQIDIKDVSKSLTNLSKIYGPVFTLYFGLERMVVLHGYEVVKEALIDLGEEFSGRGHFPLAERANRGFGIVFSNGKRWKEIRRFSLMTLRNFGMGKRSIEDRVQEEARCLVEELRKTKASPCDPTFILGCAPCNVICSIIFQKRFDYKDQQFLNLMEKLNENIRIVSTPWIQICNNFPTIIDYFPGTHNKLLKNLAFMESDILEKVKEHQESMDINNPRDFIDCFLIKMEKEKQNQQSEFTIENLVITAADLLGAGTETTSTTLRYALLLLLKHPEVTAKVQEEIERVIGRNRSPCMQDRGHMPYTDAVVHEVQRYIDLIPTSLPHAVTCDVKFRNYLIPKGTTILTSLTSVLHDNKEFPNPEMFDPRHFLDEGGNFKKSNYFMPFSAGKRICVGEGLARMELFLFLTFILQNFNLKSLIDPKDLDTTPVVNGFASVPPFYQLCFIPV
T5 sequence (P08684 2-503): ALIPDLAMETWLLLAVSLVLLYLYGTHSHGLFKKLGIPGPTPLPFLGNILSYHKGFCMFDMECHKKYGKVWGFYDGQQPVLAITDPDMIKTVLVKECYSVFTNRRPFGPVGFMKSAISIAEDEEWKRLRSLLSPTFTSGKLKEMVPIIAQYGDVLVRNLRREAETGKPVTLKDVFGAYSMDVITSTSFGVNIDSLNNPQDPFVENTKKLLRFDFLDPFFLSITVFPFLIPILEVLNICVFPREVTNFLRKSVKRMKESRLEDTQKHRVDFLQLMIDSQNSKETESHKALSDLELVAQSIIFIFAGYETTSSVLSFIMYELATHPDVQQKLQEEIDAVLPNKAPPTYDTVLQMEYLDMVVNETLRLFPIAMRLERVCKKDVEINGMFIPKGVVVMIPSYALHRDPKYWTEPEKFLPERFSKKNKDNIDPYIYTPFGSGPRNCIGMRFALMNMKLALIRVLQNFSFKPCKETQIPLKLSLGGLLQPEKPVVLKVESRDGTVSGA
T4 sequence (P10635 whole entry): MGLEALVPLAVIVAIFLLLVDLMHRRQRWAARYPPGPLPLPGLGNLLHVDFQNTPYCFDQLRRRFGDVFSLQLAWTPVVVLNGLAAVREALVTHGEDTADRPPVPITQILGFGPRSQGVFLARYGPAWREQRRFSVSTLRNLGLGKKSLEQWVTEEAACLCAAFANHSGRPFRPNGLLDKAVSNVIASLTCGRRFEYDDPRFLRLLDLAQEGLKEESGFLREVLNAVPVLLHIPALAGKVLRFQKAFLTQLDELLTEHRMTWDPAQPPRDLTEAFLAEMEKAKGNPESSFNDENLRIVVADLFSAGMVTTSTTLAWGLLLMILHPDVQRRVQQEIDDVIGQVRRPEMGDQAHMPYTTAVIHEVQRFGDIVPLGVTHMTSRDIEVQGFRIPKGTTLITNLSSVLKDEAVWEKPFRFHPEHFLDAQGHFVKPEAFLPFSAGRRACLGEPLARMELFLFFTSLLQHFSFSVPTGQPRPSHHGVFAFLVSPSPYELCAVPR
T3 sequence (P11712 whole entry): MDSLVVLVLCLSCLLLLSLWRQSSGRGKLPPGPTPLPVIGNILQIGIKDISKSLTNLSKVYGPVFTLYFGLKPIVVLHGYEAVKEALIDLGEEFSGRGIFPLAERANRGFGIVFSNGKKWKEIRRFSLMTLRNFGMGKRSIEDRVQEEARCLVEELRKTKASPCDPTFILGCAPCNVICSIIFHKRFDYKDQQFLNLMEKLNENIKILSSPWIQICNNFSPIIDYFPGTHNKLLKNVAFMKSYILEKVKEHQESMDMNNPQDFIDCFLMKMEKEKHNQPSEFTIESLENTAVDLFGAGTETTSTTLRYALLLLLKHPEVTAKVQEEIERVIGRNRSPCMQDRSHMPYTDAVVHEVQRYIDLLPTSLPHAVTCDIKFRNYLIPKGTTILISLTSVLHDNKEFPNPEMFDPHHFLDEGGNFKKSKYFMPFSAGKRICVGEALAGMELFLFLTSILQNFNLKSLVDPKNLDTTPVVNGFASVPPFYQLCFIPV

IC50 [1]: 285.1 µM | IC50 [2]: 2837 µM | IC50 (μM) [3]: 68.96 [95% CI: 49.14–96.79] μM | IC50 [4]: 104.4 µM | IC50 [5]: 107.1 µM
Structure (SMILES): CCOC(=O)C1=C[C@]2(CC)CCCN3CCc4c(n1c1ccccc41)[C@@H]32 [Vinpocetine, ethyl (3α,16α)-eburnamenine-14-carboxylate]
